How the values were obtained:
[1] = Cytotoxicity against human COR-L26 cells measured after 8 days; format: functional, cell-based; conditions: COR-L26, 192 h
EMT6 = assay: Cytotoxicity against mouse EMT6 Luciferase cells measured after 8 days; format: functional, cell-based; conditions: EMT6, 192 h
HEp-2 = assay: Cytotoxicity against human HEp-2 cells measured after 8 days; format: functional, cell-based; conditions: HEp-2, 192 h
[2] = Cytotoxicity against human FTC-238 cells measured after 8 days; format: functional, cell-based; conditions: FTC-238, 192 h
[3] = Cytotoxicity against human U-87 MG cells measured after 8 days; format: functional, cell-based, U-87MG ATCC; conditions: 192 h
KMS-12-BM = assay: Cytotoxicity against human KMS-12-BM cells measured after 8 days; format: functional, cell-based; conditions: 192 h
[4] = Cytotoxicity against human 59M cells measured after 8 days; format: functional, cell-based; conditions: 192 h
NCI-H2170 = assay: Cytotoxicity against human NCI-H2170 cells measured after 8 days; format: functional, cell-based; conditions: NCI-H2170, 192 h
[5] = Cytotoxicity against human OVISE cells measured after 8 days; format: functional, cell-based; conditions: 192 h
H322 = assay: Cytotoxicity against human H322 cells measured after 8 days; format: functional, cell-based; conditions: NCI-H322, 192 h
[6] = Cytotoxicity against human JHH7 cells measured after 8 days; format: functional, cell-based; conditions: JHH7, 192 h
C-33-A = assay: Cytotoxicity against human C-33-A cells measured after 8 days; format: functional, cell-based; conditions: 192 h
[7] = Cytotoxicity against human COLO 853 cells measured after 8 days; format: functional, cell-based; conditions: COLO 853, 192 h
[8] = Cytotoxicity against human COLO 794 cells measured after 8 days; format: functional, cell-based; conditions: COLO 794, 192 h
23132-87 = assay: Cytotoxicity against human 23132-87 cells measured after 8 days; format: functional, cell-based; conditions: 23132-87, 192 h
[9] = Cytotoxicity against human HCC15 cells measured after 8 days; format: functional, cell-based; conditions: HCC15, 192 h
[10] = Cytotoxicity against human SKG-II cells measured after 8 days; format: functional, cell-based; conditions: 192 h
WM-115 = assay: Cytotoxicity against human WM-115 cells measured after 8 days; format: functional, cell-based; conditions: WM-115, 192 h
SU.86.86 = assay: Cytotoxicity against human SU-86-86 cells measured after 8 days; format: functional, cell-based; conditions: SU.86.86, 192 h
[11] = Cytotoxicity against human COV413B cells measured after 8 days; format: functional, cell-based; conditions: 192 h
[12] = Cytotoxicity against human HCC60 cells measured after 8 days; format: functional, cell-based; conditions: HCC60, 192 h
Homo sapiens = species on record: Homo sapiens; assay: Inhibition of human N muscle type receptor at 10 uM relative to control
SK-N-DZ = assay: Cytotoxicity against human SK-N-DZ cells measured after 8 days; format: functional, cell-based; conditions: 192 h
HuCCT-1 = assay: Cytotoxicity against human HuCCT-1 cells measured after 8 days; format: functional, cell-based; conditions: HuCCT-1, 192 h
[13] = Cytotoxicity against human RKN cells measured after 8 days; format: functional, cell-based; conditions: 192 h
[14] = Cytotoxicity against human OCI-M1 cells measured after 8 days; format: functional, cell-based; conditions: OCI-M1, 192 h
[15] = Cytotoxicity against human KPR3351 cells measured after 8 days; format: functional, cell-based; conditions: KPR3351, 192 h
T98G = assay: Cytotoxicity against human T98G cells measured after 8 days; format: functional, cell-based; conditions: 192 h
SW1990 = assay: Cytotoxicity against human SW1990 cells measured after 8 days; format: functional, cell-based; conditions: SW1990, 192 h
[16] = Cytotoxicity against human HEC-116 cells measured after 8 days; format: functional, cell-based; conditions: HEC-116, 192 h
[17] = Cytotoxicity against human NCE-G 22 cells measured after 8 days; format: functional, cell-based; conditions: NCE-G 22, 192 h
KYSE-150 cell line = assay: Cytotoxicity against human KYSE-150 cell line measured after 8 days; format: functional, cell-based; conditions: KYSE-150, 192 h
Skut1B = assay: Cytotoxicity against human Skut1B cells measured after 8 days; format: functional, cell-based; conditions: 192 h
[18] = Cytotoxicity against human HEC-108 cells measured after 8 days; format: functional, cell-based; conditions: HEC-108, 192 h
[19] = Cytotoxicity against human HCS-2 cells measured after 8 days; format: functional, cell-based; conditions: HCS-2, 192 h
NB1 = assay: Cytotoxicity against human NB1 cells measured after 8 days; format: functional, cell-based; conditions: NB1, 192 h
786-0 = assay: Cytotoxicity against human 786-0 cells measured after 8 days; format: functional, cell-based; conditions: 786-0, 192 h
[20] = Cytotoxicity against human Mel 928 cells measured after 8 days; format: functional, cell-based; conditions: Mel 928, 192 h
SF-268 = assay: Cytotoxicity against human SF-268 cells measured after 8 days; format: functional, cell-based; conditions: SF-268, 192 h
[21] = Cytotoxicity against human HEC-151 cells measured after 8 days; format: functional, cell-based; conditions: HEC-151, 192 h
[22] = Cytotoxicity against human SM1 cells measured after 8 days; format: functional, cell-based; conditions: SM1, 192 h
MCF-10A = assay: Cytotoxicity against human MCF-10A cells measured after 8 days; format: functional, cell-based; conditions: 192 h
[23] = Cytotoxicity against human BICR 10 cells measured after 8 days; format: functional, cell-based; conditions: BICR 10, 192 h
[24] = Cytotoxicity against human PMF-ko14 cells measured after 8 days; format: functional, cell-based; conditions: PMF-ko14, 192 h
RPMI-8226 = assay: Cytotoxicity against human RPMI-8226 cells measured after 8 days; format: functional, cell-based; conditions: RPMI-8226, 192 h
[25] = Cytotoxicity against human Karpas-620 cells measured after 8 days; format: functional, cell-based; conditions: Karpas-620, 192 h
[26] = Cytotoxicity against human CoCM-1 cells measured after 8 days; format: functional, cell-based; conditions: CoCM-1, 192 h
[27] = Cytotoxicity against human HEC-88nu cells measured after 8 days; format: functional, cell-based; conditions: 192 h
MeWo = assay: Cytotoxicity against human MeWo cells measured after 8 days; format: functional, cell-based; conditions: 192 h
[28] = Cytotoxicity against human NCE-G 61 cells measured after 8 days; format: functional, cell-based; conditions: NCE-G 61, 192 h
HT-3 = assay: Cytotoxicity against human HT-3 cells measured after 8 days; format: functional, cell-based; conditions: HT-3, 192 h
[29] = Cytotoxicity against human PK-59 cells measured after 8 days; format: functional, cell-based; conditions: PK-59, 192 h
A2058 = assay: Cytotoxicity against human A2058 cells measured after 8 days; format: functional, cell-based; conditions: A2058, 192 h
Hs746T = assay: Cytotoxicity against human Hs746T cells measured after 8 days; format: functional, cell-based; conditions: 192 h
[30] = Cytotoxicity against human HCA1 cells measured after 8 days; format: functional, cell-based; conditions: HCA1, 192 h
[31] = Cytotoxicity against human HEC-59 cells measured after 8 days; format: functional, cell-based; conditions: HEC-59, 192 h
LS174T = assay: Cytotoxicity against human LS174T cells measured after 8 days; format: functional, cell-based; conditions: 192 h
[32] = Cytotoxicity against human NCE-G 142 cells measured after 8 days; format: functional, cell-based; conditions: NCE-G 142, 192 h
[33] = Cytotoxicity against human TYK-nu.CP-r cells measured after 8 days; format: functional, cell-based; conditions: 192 h
OVCAR-8 = assay: Cytotoxicity against human OVCAR-8 cells measured after 8 days; format: functional, cell-based; conditions: OVCAR-8, 192 h
[34] = Cytotoxicity against human GR-M cells measured after 8 days; format: functional, cell-based; conditions: 192 h
NOMO-1 = assay: Cytotoxicity against human NOMO-1 cells measured after 8 days; format: functional, cell-based; conditions: NOMO-1, 192 h
IMR-32 = assay: Cytotoxicity against human IMR-32 cells measured after 8 days; format: functional, cell-based; conditions: IMR-32, 192 h
[35] = Cytotoxicity against human NCI-H2461 cells measured after 8 days; format: functional, cell-based; conditions: NCI-H2461, 192 h

C/C=C/Cn1cc(-c2ccc(C(C)(C)O)cc2OC)c2cc[nH]c2c1=O
IC50 [1]: 20 µM
IC50 (EMT6): 20 µM
IC50 (HEp-2): 20 µM
IC50 [2]: 9.52 µM
IC50 [3]: 20 µM
IC50 (KMS-12-BM): 20 µM
IC50 [4]: 20 µM
IC50 (NCI-H2170): 20 µM
IC50 [5]: 20 µM
IC50 (H322): 20 µM
IC50 [6]: 17.8 µM
IC50 (C-33-A): 20 µM
IC50 [7]: 20 µM
IC50 [8]: 20 µM
IC50 (23132-87): 20 µM
IC50 [9]: 20 µM
IC50 [10]: 20 µM
IC50 (WM-115): 20 µM
IC50 (SU.86.86): 20 µM
IC50 [11]: 20 µM
IC50 [12]: 20 µM
inhibition (Homo sapiens): -7%
IC50 (SK-N-DZ): 18.6 µM
IC50 (HuCCT-1): 20 µM
IC50 [13]: 20 µM
IC50 [14]: 10.7 µM
IC50 [15]: 20 µM
IC50 (T98G): 20 µM
IC50 (SW1990): 20 µM
IC50 [16]: 20 µM
IC50 [17]: 20 µM
IC50 (KYSE-150 cell line): 20 µM
IC50 (Skut1B): 20 µM
IC50 [18]: 20 µM
IC50 [19]: 20 µM
IC50 (NB1): 10.2 µM
IC50 (786-0): 20 µM
IC50 [20]: 20 µM
IC50 (SF-268): 20 µM
IC50 [21]: 20 µM
IC50 [22]: 11.2 µM
IC50 (MCF-10A): 11.4 µM
IC50 [23]: 20 µM
IC50 [24]: 20 µM
IC50 (RPMI-8226): 20 µM
IC50 [25]: 20 µM
IC50 [26]: 20 µM
IC50 [27]: 20 µM
IC50 (MeWo): 20 µM
IC50 [28]: 20 µM
IC50 (HT-3): 20 µM
IC50 [29]: 20 µM
IC50 (A2058): 20 µM
IC50 (Hs746T): 20 µM
IC50 [30]: 20 µM
IC50 [31]: 20 µM
IC50 (LS174T): 20 µM
IC50 [32]: 20 µM
IC50 [33]: 20 µM
IC50 (OVCAR-8): 20 µM
IC50 [34]: 20 µM
IC50 (NOMO-1): 20 µM
IC50 (IMR-32): 20 µM
IC50 [35]: 20 µM

C/C=C/Cn1cc(-c2ccc(C(=O)N3CCOCC3)cc2)c2cc[nH]c2c1=O
IC50 [1]: 20 µM
IC50 (EMT6): 20 µM
IC50 (HEp-2): 20 µM
IC50 [2]: 20 µM
IC50 [3]: 20 µM
IC50 (KMS-12-BM): 13.7 µM
IC50 [4]: 20 µM
IC50 (NCI-H2170): 20 µM
IC50 [5]: 20 µM
IC50 (H322): 20 µM
IC50 [6]: 20 µM
IC50 (C-33-A): 20 µM
IC50 [7]: 20 µM
IC50 [8]: 20 µM
IC50 (23132-87): 20 µM
IC50 [9]: 20 µM
IC50 [10]: 20 µM
IC50 (WM-115): 20 µM
IC50 (SU.86.86): 20 µM
IC50 [11]: 20 µM
IC50 [12]: 20 µM
inhibition (Homo sapiens): -1%
IC50 (SK-N-DZ): 20 µM
IC50 (HuCCT-1): 20 µM
IC50 [13]: 20 µM
IC50 [14]: 11.6 µM
IC50 [15]: 20 µM
IC50 (T98G): 20 µM
IC50 (SW1990): 20 µM
IC50 [16]: 20 µM
IC50 [17]: 20 µM
IC50 (KYSE-150 cell line): 20 µM
IC50 (Skut1B): 20 µM
IC50 [18]: 20 µM
IC50 [19]: 20 µM
IC50 (NB1): 20 µM
IC50 (786-0): 20 µM
IC50 [20]: 20 µM
IC50 (SF-268): 20 µM
IC50 [21]: 20 µM
IC50 [22]: 17.9 µM
IC50 (MCF-10A): 20 µM
IC50 [23]: 20 µM
IC50 [24]: 20 µM
IC50 (RPMI-8226): 20 µM
IC50 [25]: 20 µM
IC50 [26]: 20 µM
IC50 [27]: 20 µM
IC50 (MeWo): 20 µM
IC50 [28]: 20 µM
IC50 (HT-3): 20 µM
IC50 [29]: 20 µM
IC50 (A2058): 20 µM
IC50 (Hs746T): 20 µM
IC50 [30]: 20 µM
IC50 [31]: 20 µM
IC50 (LS174T): 20 µM
IC50 [32]: 20 µM
IC50 [33]: 20 µM
IC50 (OVCAR-8): 20 µM
IC50 [34]: 20 µM
IC50 (NOMO-1): 20 µM
IC50 (IMR-32): 20 µM
IC50 [35]: 20 µM

From ChEMBL document CHEMBL5260810, “Inhibition of bromodomain-containing protein 9 for the prevention of epigenetically-defined drug resistance” (Bioorg Med Chem Lett, 2017)
